Each block holds one molecule with its values, some of them ahead of it.
What was measured:
BLT1 = biological target: T1, BLT1 (Homo sapiens, UniProt Q15722); test: LTB4-induced chemotactic motility, Transwell, CHO-BLT1 cells; type: cell-based; conditions: 10 μM pre-treatment, LTB4 10 nM
T1 construct: expressed in transfected cells; host or cells: CHO cells stably expressing BLT1 (CHO-BLT1)
Protocol: (§1) Chemotactic motility was analyzed using a Transwell chamber including a polycarbonate filter (8-μm pore size, Corning Costar) with a 6.5-mm diameter. Specifically, the lower surface of the filter was coated with 10 μg/mL fibronectin in a serum-free RPMI 1640 medium at 37° C. for 1 hour. The experiment was performed by placing the filter dried and coated with RPMI 1640 media containing various amounts of LTB4 in the lower wells of the Transwell chamber, and loading CHO cells stably expressing BLT1 and BLT2 into the upper wells containing serum-free RPMI 1640 media finally at 2×10^4 cells/100 μL. To evaluate the effect of inhibitors, the cells were pre-treated with each inhibitor for 30 minutes before dispensing. After the cells were cultured at 37° C. in 5% CO2 for 3 hours, the filters were fixed with methanol for 3 minutes, and stained with hematoxylin and eosin for 10 minutes. In the experiment, the cells were BLT2-expressing cells (CHO-BLT2 cells) and BLT1-expressing cells (CHO-BLT1 cells), and LY255283 and U75302 were used as positive controls for each type of the cells, and BLT2 ligand LTB4, (300 nM), BLT1 ligand LTB4 (10 nM), and lysophosphatidic acid (LPA; 100 nM) were used as comparative controls. The chemotactic motility was quantitatively analyzed by counting the cells on the lower side of the filter under an optical microscope (magnification, 200×). For each analysis, 6 fields were subjected to counting, each sample was analyzed twice, and the analysis was repeated three times.

[1] = test system: cancer cells (MDA-MB-231); test: Metastasis of breast cancer cells in nude mice; type: in vivo; conditions: MDA-MB-231 in nude mice, i.p.; LMT-696 and LY255283 2.5 mg/kg, U75302 0.25 mg/kg; 15 weeks
Protocol: An experiment for the metastasis of breast cancer cells according to the treatment of the compound of the present invention was approved by the Ethics Committee of Korea University, and all experimental animals used in this experiment were treated according to the approved guidelines of the Korea University Animal Care and Use Committee. Six-week-old female nude mice (Charles River, Wilmington, Mass.) were injected with cancer cells to confirm cancer cell metastasis. The breast cancer cells were pre-treated with the compound of the present invention (LMT-696, 10 μM), LY255283, U75302 and DMSO, and 24 hours later, harvested with trypsin-EDTA, resuspended in PBS, and then 2×10^6 of the breast cancer cells were intraperitoneally injected into mice anesthetized with zoletil (50 mg/kg). After five days, the compound of the present invention (LMT-696; 2.5 mg/kg), LY255283 (2.5 mg/kg), U75302 (0.25 mg/kg) and DMSO were injected intraperitoneally three times every five days. At 15 weeks after the injection of the breast cancer cells, the mice were dissected to observe the cancer cell metastasis.

[2] = biological target: T2, BLT2-expressing cells (CHO-BLT2 cells) (Homo sapiens, UniProt Q9NPC1); test: MTT cell growth of LTB4-stimulated BLT2-expressing cells; type: cell-based; conditions: LTB4 300 nM; for inhibition at 10 µM: read-out: growth inhibitory effect; for cell growth compared with the control DMSO: pre-treated at 10 μM
T2 construct: HA; expressed in transfected cells
T2 sequence (Q9NPC1 with tags, fused parts or gaps): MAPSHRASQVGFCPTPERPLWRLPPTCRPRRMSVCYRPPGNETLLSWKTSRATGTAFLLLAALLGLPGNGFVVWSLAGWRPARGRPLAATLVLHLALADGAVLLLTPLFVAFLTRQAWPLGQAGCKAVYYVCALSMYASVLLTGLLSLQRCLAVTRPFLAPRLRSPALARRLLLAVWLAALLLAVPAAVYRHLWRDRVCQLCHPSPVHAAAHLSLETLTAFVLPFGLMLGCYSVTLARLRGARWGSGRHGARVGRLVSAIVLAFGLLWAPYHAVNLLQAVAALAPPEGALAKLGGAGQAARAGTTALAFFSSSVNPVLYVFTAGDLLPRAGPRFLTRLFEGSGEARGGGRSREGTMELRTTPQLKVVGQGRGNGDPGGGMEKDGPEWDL
Protocol: Cell viability according to treatment of the compounds prepared in the examples were measured by a 3-(4,5-dimethylthiazol-2-yl)-2,5-diphenyltetrazolium bromide (MTT) method.
More specifically, 1×10^4 each of the BLT2-nonexpressing cells (CHO-pcDNA3.1 cells) and BLT2-expressing cells (CHO-BLT2 cells), which were prepared in Experimental Example 1, were dispensed in a […], and cultured for 24 hours. Afterward, the culture medium was removed, a serum-free RPMI medium was added, and after two hours, the cells were pre-treated with each of the compound prepared in one of the examples (10 μM), 10 μM DMSO (compound solvent) as a control, and 10 μM 1-[5-ethyl-2-hydroxy-4-[[6-methyl-6-(1H-tetrazol-5-yl)heptyl]oxy]phenyl]-ethanone (LY255283; Cayman) as a positive control for 1 hour. Subsequently, after treatment of LTB4 (300 nM), the cells were cultured for 24 hours. 20 μL of an MTT solution (5 mg/mL, Sigma-Aldrich) was added to each well, the cells were cultured in a humid CO2 incubator at 37° C. for 4 hours, a supernatant was removed, and 200 μL of DMSO was added to each well to dissolve insoluble violet formazan crystals. Absorbance was measured using a microplate reader (Molecular Devices, Sunnyvale, Calif.) at 550 nm, and the measurement was repeated three times.

BLT2 = biological target: T3, BLT2 (Homo sapiens, UniProt Q9NPC1); test: LTB4-induced chemotactic motility, Transwell, CHO-BLT2 cells; type: cell-based; conditions: LTB4 300 nM; for inhibition at 10 µM: read-out: chemotactic motility inhibited compared with LTB4 (DMSO+)
T3 construct: HA; expressed in transfected cells
T3 sequence (Q9NPC1 with tags, fused parts or gaps): T2 sequence (Q9NPC1 with tags, fused parts or gaps)
Protocol: as §1

[3] = test system: asthma-induced mice (OVA+LPS); test: OVA+LPS-induced severe asthma mice: AHR and cell influx; type: in vivo; conditions: 10 mg/kg, airway constrictor 50 mg/ml
Description: Mast cells play a pivotal role in the initial reaction to asthma, and when an allergen enters the body from the outside through an airway, the mast cells are activated, thereby secreting various cytokines (interleukin-4 and interleukin-13). Due to the cytokines, the influx of inflammatory cells, the generation of mucus and the airway contraction occur. The inventors used 7-week-old (18 to 20 g) female BALB/c mice provided by Orient (Seoungnam, Korea) for the experiment to confirm the antiasthma effect, and then the asthma was induced in the mice. On the first and 14th days, 2.5 mg of an adjuvant, aluminum hydroxide gel (alum; Pierce, Rockford, Ill.) was included in […] of ovalbumin (OVA) to intraperitoneally sensitize female […] mice. On the 21st, 22nd and 23rd days of two initial sensitizations, 1% OVA was sprayed into the mice using an ultrasonic nebulizer. The compound of the present invention (LMT-696; 5 mg/kg), LY255283 (5 mg/kg, Cayman) or DMSO was intraperitoneally injected at the 1 hour before the 1% OVA spraying. On the 24th day of the initial sensitization, airway hyperresponsiveness (AHR) was detected, and on the 25th day, the mice were dissected to observe asthma phenotypes, for example, inflammatory cytokine IL-4 expression and the influx of inflammatory cells (neutrophils). In the case of lipopolysaccharide (LPS)-induced severe asthma animal models, on the 0, 1st, 2nd and 7th days, 75 μg of OVA and 1 mg of LPS were intranasally injected into Balb/c mice for sensitization. On the 14th, 15th, 21th and 22th days, 50 μg of OVA was injected into the nose for a challenge. The compound of the present invention (LMT-1013) (1, 3, 10 or 30 mg/kg), montelukast (10 mg/kg, DRS) or a control buffer (10% DMA, 5% Tween 80, 85% brine) were treated one hour before the challenge by injecting 50 μg of OVA into the nose. On the 23rd day of the initial sensitization, AHR was detected, and on the 24th day, the mice were dissected to observe a severe asthma phenotype, for example, the influx of the inflammatory cells (neutrophils). In addition, the AHR detection was performed after an airway constrictor, methacholine (6.25 to 50 mg/ml depending on conditions), was administered to the mice. The administration of the airway constrictor was performed by spraying through an inlet of the chamber using an ultrasonic nebulizer for 3 minutes. The AHR was analyzed using an enhanced pause as the indicator of the asthma phenomenon. Bronchoalveolar lavage fluid cell counts were quantified by counting cells under an optical microscope (magnification, 200×). In each analysis, 4 fields were subjected to counting, each sample was analyzed twice, and the analysis was repeated three times.

T1 sequence (Q15722 whole entry, species assumed): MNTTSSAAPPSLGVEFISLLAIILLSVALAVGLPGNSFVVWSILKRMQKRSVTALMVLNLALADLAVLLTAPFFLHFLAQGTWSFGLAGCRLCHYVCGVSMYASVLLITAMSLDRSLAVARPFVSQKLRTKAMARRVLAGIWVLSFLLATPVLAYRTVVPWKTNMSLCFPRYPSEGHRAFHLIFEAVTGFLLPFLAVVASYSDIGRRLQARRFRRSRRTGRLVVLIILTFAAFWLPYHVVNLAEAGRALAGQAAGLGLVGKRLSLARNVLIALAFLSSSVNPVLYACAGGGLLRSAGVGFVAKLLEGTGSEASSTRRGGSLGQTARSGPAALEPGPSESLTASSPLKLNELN

inhibition at 10 µM [2]: 65%
SMILES: CCCCC(=O)N(CC#Cc1cccc(C(=O)N2CCNCC2)c1)c1ccccc1 [LMT-837, N-phenyl-N-(3-(3-(piperazine-1-carbonyl)phenyl)prop-2-ynyl)pentaneamide]

inhibition at 10 µM [2]: 60%
SMILES: CCCCC(=O)N(CC#Cc1ccc(C(=O)N2CCN(C(C)C)CC2)cc1)c1ccc(F)cc1 [LMT-841, N-(4-fluorophenyl)-N-(3-(4-(4-isopropylpiperazine-1-carbonyl)phenyl)prop-2-ynyl)pentaneamide]

inhibition at 10 µM [2]: 70%
SMILES: CCCCC(=O)N(CC#Cc1cccc(C(=O)N2CCN(C(C)C)CC2)c1)c1ccccc1 [LMT-842, N-(3-(3-(4-isopropylpiperazine-1-carbonyl)phenyl)prop-2-ynyl)-N-phenylpentaneamide]

cell growth compared with the control DMSO [2]: 16.7%
inhibition at 10 µM (BLT2; 10 μM pre-treatment): 90%
inhibitory effect on chemotactic motility (BLT1): did not exhibit the inhibitory effect
SMILES: CCCCC(=O)N(CC#Cc1ccc(C(=O)N2CCNCC2)cc1)c1ccccc1 [LMT-694, N-phenyl-N-(3-(4-(piperazine-1-carbonyl)phenyl)prop-2-ynyl)pentanamide]

inhibition at 10 µM [2]: 99%
SMILES: CCCCC(=O)N(CC#Cc1ccc(C(=O)NC(C)C(=O)O)cc1)c1ccccc1 (stereo not drawn) [LMT-1019, 2-(4-(3-(N-phenylpentaneamido)prop-1-yn-1-yl)benzamido)propanoic acid]

inhibition at 10 µM [2]: 99%
SMILES: CCCCC(=O)N(CC#Cc1ccc(C(=O)N2CCN(C(C)C)CC2)cc1)c1cccc(F)c1 [LMT-886, N-(3-fluorophenyl)-N-(3-(4-(4-isopropylpiperazine-1-carbonyl)phenyl)prop-2-ynyl)pentaneamide]

Continued, molecule first:

SMILES: CCCCC/C=C\C[C@@H](O)/C=C/c1cccc(C[C@@H](O)CCCCO)n1 [U75302, reference compound]
chemotactic motility as compared with cells treated with the ligand LTB4 (BLT1): 90%
metastasis of the cancer cells inhibited as compared with the control [1]: not inhibited

SMILES: CCCCC(=O)N(CC#Cc1ccc(C(=O)N(CC)CC)cc1)c1ccccc1 [LMT-883, N,N-diethyl-4-(3-(N-phenylpentaneamido)prop-1-ynyl)benzamide]
inhibition at 10 µM [2]: 99%

SMILES: CCc1cc(C(C)=O)c(O)cc1OCCCCCC(C)(C)c1nnn[nH]1 [LY255283, 1-[5-ethyl-2-hydroxy-4-[[6-methyl-6-(1H-tetrazol-5-yl)heptyl]oxy]phenyl]-ethanone, reference compound]
cell growth compared with the control DMSO [2]: approximately 90%
chemotactic motility as compared with cells treated with the ligand LTB4 (BLT2; 10 μM pre-treatment): 90%
metastasis of the cancer cells inhibited as compared with the control [1]: 36%

SMILES: CCCCC(=O)N(CC#Cc1ccc(C(=O)NC(C)C(=O)OC)cc1)c1ccccc1 (stereo not drawn) [LMT-1018, methyl 2-(4-(3-(N-phenylpentaneamido)prop-1-yn-1-yl)benzamido)propanoate]
inhibition at 10 µM [2]: 71.6%

SMILES: CCCCC(=O)N(CC#Cc1ccc(C(=O)NCCN(C)C)cc1)c1ccccc1 [LMT-1016, N-(2-(dimethylamino)ethyl)-4-(3-(N-phenylpentaneamido)prop-1-yn-1-yl)benzamide]
inhibition at 10 µM [2]: 99%

SMILES: CC(C)(O)c1ccccc1CC[C@@H](SCC1(CC(=O)O)CC1)c1cccc(/C=C/c2ccc3ccc(Cl)cc3n2)c1 [montelukast, reference compound]
AHR reduced [3]: 64%

SMILES: CCCCC(=O)N(CC#Cc1ccc(C(=O)N2CCN(C)CC2)cc1)c1ccccc1 [LMT-692, N-(3-(4-(4-methylpiperazine-1-carbonyl)phenyl)prop-2-ynyl)-N-phenylpentanamide]
cell growth compared with the control DMSO [2]: 88.0%
inhibition at 10 µM (BLT2; 10 μM pre-treatment): 66%
IC50 (BLT2; serum-free, read-out: IC50 of chemotactic motility inhibition): 7.57 µM
inhibitory effect on chemotactic motility (BLT1): did not exhibit the inhibitory effect
